Laboratory results: patent US8691865B2 (AbbVie Inc., priority 2008, dated 2014)
pIC50: −log10 of the molar value.

Target: human Cav2.2 (Homo sapiens, UniProt Q00975)
Test: Assessment of calcium channel activity using FLIPR (Ca2+ influx in IMR32 cells)
Assay type: cell-based
Conditions: not given
Method in brief: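 IC50 values derive from nonlinear sigmoidal fitting of percent inhibition, relative to inhibitor-free activity, of Ca2+ influx read by FLIPR. Cells were IMR32 human neuroblastoma, plated at 1−1.2×10^5 per well and grown 48 h at 37 °C.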

Sequence of human Cav2.2 (Q00975 whole entry): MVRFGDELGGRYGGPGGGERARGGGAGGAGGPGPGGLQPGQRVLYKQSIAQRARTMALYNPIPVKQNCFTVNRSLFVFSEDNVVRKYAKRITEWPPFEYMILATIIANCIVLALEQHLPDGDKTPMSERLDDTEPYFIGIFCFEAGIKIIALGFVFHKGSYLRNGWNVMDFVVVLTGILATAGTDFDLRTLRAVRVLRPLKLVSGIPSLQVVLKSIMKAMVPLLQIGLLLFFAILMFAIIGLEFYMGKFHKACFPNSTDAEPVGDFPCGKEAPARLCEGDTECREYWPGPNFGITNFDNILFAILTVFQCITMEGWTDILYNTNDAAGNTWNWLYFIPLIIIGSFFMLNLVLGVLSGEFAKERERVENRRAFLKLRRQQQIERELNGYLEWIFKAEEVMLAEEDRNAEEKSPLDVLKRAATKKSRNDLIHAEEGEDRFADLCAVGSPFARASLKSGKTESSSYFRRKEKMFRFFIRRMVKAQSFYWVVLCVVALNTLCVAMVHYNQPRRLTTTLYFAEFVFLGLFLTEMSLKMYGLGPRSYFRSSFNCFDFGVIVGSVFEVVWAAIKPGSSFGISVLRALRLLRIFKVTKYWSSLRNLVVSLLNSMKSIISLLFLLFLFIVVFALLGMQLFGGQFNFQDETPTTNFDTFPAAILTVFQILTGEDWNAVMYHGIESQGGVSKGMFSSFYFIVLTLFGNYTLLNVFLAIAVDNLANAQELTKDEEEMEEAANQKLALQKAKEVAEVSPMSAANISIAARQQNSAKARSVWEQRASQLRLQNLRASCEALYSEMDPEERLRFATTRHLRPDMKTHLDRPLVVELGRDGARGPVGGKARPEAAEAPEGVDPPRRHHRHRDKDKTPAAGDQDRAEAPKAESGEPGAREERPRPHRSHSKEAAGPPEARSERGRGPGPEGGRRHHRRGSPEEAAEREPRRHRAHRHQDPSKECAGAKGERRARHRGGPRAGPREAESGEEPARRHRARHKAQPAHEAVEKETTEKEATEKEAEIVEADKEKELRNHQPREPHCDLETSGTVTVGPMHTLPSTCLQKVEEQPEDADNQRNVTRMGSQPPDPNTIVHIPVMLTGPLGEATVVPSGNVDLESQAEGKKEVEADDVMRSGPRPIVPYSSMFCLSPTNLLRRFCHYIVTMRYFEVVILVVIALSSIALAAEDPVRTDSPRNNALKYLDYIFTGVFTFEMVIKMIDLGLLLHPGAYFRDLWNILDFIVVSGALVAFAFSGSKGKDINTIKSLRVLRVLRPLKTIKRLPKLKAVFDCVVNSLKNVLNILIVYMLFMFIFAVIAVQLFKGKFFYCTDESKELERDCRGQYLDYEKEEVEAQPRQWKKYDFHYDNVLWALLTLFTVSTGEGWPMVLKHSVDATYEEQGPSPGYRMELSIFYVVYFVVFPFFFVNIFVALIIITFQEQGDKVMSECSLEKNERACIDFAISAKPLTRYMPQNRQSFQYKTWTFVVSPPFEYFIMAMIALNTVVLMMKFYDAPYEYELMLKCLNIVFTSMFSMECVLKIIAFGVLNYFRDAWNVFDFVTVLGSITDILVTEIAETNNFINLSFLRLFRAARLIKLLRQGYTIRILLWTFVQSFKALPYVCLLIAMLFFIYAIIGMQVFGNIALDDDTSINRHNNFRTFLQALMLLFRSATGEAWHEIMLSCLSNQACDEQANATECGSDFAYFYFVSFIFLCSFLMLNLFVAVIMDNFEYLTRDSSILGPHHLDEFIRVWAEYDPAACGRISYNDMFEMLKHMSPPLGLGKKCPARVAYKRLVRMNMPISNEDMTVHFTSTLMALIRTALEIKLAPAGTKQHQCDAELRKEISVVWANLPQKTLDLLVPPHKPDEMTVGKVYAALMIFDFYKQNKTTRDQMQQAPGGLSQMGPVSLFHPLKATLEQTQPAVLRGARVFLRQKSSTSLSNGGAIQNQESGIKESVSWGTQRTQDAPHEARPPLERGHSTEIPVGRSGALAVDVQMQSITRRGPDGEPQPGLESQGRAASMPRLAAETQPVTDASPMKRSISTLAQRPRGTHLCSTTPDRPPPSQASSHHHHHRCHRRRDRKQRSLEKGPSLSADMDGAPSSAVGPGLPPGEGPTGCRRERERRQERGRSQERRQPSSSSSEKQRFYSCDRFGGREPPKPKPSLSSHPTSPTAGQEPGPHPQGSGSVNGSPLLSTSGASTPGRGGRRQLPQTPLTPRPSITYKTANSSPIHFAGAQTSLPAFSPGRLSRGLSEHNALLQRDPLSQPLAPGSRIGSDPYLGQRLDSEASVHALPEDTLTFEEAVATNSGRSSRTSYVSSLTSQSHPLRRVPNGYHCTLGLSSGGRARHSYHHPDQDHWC
Sequence of human Cav2.2 (P54289 25-956 partner limits assumed): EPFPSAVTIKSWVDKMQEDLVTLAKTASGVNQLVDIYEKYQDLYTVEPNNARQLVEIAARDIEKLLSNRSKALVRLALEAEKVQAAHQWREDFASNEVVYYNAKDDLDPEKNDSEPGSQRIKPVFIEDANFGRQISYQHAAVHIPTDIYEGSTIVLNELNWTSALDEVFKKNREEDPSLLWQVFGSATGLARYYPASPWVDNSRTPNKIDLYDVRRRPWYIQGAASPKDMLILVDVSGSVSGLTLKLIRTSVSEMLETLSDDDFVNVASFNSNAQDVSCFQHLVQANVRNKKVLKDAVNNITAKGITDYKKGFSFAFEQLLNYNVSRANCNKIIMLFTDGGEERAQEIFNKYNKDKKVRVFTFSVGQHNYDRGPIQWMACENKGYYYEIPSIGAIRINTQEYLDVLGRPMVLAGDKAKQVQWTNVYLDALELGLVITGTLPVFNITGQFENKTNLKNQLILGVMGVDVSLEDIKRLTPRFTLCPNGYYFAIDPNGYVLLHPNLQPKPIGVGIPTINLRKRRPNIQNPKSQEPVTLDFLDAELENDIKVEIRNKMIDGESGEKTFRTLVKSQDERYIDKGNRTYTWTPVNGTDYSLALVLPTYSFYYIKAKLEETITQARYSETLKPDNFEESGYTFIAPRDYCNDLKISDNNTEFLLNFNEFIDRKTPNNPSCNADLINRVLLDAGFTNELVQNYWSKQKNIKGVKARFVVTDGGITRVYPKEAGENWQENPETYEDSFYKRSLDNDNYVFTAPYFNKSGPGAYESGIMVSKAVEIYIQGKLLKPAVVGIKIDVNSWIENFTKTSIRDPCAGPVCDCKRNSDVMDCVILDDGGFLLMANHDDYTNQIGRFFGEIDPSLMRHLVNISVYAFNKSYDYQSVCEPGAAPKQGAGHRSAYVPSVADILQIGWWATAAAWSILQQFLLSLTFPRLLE
Sequence of human Cav2.2 (P54289 957-1103 partner limits assumed): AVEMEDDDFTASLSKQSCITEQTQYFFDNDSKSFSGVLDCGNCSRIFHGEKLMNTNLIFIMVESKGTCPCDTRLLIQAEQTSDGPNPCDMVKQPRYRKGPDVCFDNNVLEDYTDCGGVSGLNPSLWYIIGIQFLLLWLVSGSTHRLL
Sequence of human Cav2.2 (P54284 whole entry partner): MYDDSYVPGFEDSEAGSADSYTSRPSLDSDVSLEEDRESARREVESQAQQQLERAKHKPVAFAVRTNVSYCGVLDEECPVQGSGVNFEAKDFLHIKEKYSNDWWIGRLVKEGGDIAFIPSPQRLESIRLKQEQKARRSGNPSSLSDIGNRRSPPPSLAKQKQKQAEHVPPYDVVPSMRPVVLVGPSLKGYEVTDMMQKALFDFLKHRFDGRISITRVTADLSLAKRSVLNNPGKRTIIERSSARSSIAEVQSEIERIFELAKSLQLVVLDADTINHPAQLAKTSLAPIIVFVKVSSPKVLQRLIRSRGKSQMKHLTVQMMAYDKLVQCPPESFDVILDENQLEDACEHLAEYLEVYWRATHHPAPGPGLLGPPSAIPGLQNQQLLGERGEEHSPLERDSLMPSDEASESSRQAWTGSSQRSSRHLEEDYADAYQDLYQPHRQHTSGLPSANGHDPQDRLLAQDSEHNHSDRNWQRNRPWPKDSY

SMILES	pIC50
CN[C@@H](CC(C)C)C(=O)N[C@H]1CC[C@@H]2CN(c3ccc(F)c(C(F)F)c3)C[C@@H]21 [Example 769, N-{(3aR,4S,6aS)-2-[3-(difluoromethyl)-4-fluorophenyl]octahydrocyclopenta[c]pyrrol-4-yl}-N^2-methyl-L-leucinamide]	5.95
O=C(N[C@H]1CC[C@H]2CN(Cc3cccc(C(F)(F)F)c3)C[C@H]21)C1CCCC1 (relative stereo) [Example 129, N-{(3aS*,4S*,6aR*)-2-[3-(trifluoromethyl)benzyl]octahydrocyclopenta[c]pyrrol-4-yl}cyclopentanecarboxamide]	5.64
CCC[C@H](NC(C)C)C(=O)N[C@@H]1CC[C@H]2CN(Cc3ccccc3)C[C@H]21 [Example 495, N^1-[(3aS,4R,6aR)-2-benzyloctahydrocyclopenta[c]pyrrol-4-yl]-N^2-isopropyl-L-norvalinamide]	< 4.52
NCC(=O)N[C@H]1CC[C@@H]2CN(c3ccc(C(F)(F)F)cc3)C[C@@H]21 [Example 751, N-{(3aR,4S,6aS)-2-[4-(trifluoromethyl)phenyl]octahydrocyclopenta[c]pyrrol-4-yl}glycinamide]	< 5.52
CCC[C@H](NC)C(=O)N[C@@H]1CC[C@H]2CN(Cc3ccc(F)cc3)C[C@H]21 [Example 372, N^1-[(3aS,4R,6aR)-2-(4-fluorobenzyl)octahydrocyclopenta[c]pyrrol-4-yl]-N^2-methyl-L-norvalinamide]	< 5.05
CC(C)(C)C[C@H](N)C(=O)N[C@H]1CC[C@@H]2CN(S(=O)(=O)c3cccc(C(F)(F)F)c3)C[C@@H]21 [Example 392, 4-methyl-N^1-((3aR,4S,6aS)-2-{[3-(trifluoromethyl)phenyl]sulfonyl}octahydrocyclopenta[c]pyrrol-4-yl)-L-leucinamide]	6.02
Cc1c[nH]c(C(=O)N[C@H]2CC[C@@H]3CN(c4cccc(C(F)(F)F)n4)C[C@@H]32)c1 [Example 572, 4-methyl-N-{(3aR,4S,6aS)-2-[6-(trifluoromethyl)pyridin-2-yl]octahydrocyclopenta[c]pyrrol-4-yl}-1H-pyrrole-2-carboxamide]	6.00

Same assay, conditions: read-out: IC50 (μM) or percent inhibition (* indicates 3 minute incubation, otherwise 60 minute); IC50; 60 minute pre-incubation with compound; IMR32 cells, 80 mM KCl depolarization

SMILES	IC50
CC(C)N[C@H]1CC[C@@H]2CN(S(=O)(=O)c3ccc(C(F)(F)F)cc3Cl)C[C@@H]21 [Example 284, (3aR,4S,6aS)-2-{[2-chloro-4-(trifluoromethyl)phenyl]sulfonyl}-N-isopropyloctahydrocyclopenta[c]pyrrol-4-amine]	3.7 µM
O=C(CCC(c1ccc(F)cc1)c1ccc(F)cc1)N[C@@H]1CC[C@H]2CN(Cc3cccc(C(F)(F)F)c3)C[C@H]21 (relative stereo) [Example 144, 4,4-bis(4-fluorophenyl)-N-{(3aS*,4R*,6aR*)-2-[3-(trifluoromethyl)benzyl]octahydrocyclopenta[c]pyrrol-4-yl}butanamide]	1.04 µM
CC(C)C[C@H](C(=O)N[C@@H]1CC[C@H]2CN(Cc3cccc(C(F)(F)F)c3)C[C@H]21)N(C)C(=O)OC(C)(C)C (relative stereo) [Example 150, N^2-(tert-butyloxycarbonyl)-N^2-methyl-N^1-{(3aS*,4R*,6aR*)-2-[3-(trifluoromethyl)benzyl]octahydrocyclopenta[c]pyrrol-4-yl}-D-leucinamide]	0.51 µM
CCC[C@H](NC)C(=O)N[C@H]1CC[C@@H]2CN(Cc3cccc(C(F)(F)F)c3)C[C@@H]21 [Example 376, N^2-methyl-N^1-{(3aR,4S,6aS)-2-[3-(trifluoromethyl)benzyl]octahydrocyclopenta[c]pyrrol-4-yl}-L-norvalinamide]	10.6 µM
CN[C@@H](CC(C)C)C(=O)N[C@@H]1CC[C@H]2CN(S(=O)(=O)c3ccc(C(F)(F)F)cc3)C[C@H]21 [Example 183, N^2-methyl-N^1-((3aS,4R,6aR)-2-{[4-(trifluoromethyl)phenyl]sulfonyl}octahydrocyclopenta[c]pyrrol-4-yl)-L-leucinamide]	1.41 µM
